{"source": "patent US8642317B2", "about": "(priority 2007, dated 2014)", "data": [{"test_system": "bacterial isolate 180507-1 (IDAC)", "values": [{"molecule": "4-diacetoxyscirpenol", "degradation by the selected isolate (deepoxidation and/or deacylation)": "degraded"}, {"molecule": "CC(=O)O[C@@H]1C[C@]2(C)[C@@]3(CO)[C@H](O)C(=O)C(C)=C[C@H]3O[C@H]1[C@@]21CO1", "note": "[3-acetyldeoxynivalenol]", "degradation by the selected isolate (deepoxidation and/or deacylation)": "degraded"}, {"molecule": "CC(=O)OC[C@]12[C@H](O)C(=O)C(C)=C[C@H]1O[C@@H]1[C@H](O)C[C@@]2(C)[C@]12CO2", "note": "[15-acetyldeoxynivalenol]", "degradation by the selected isolate (deepoxidation and/or deacylation)": "degraded"}, {"molecule": "CC(=O)OCC12CCC(C)=CC1OC1C(O)C(O)C2(C)C12CO2", "note": "(stereo not shown) [15-monoacetoxyscirpenol]", "degradation by the selected isolate (deepoxidation and/or deacylation)": "degraded"}, {"molecule": "CC(=O)OC[C@]12C[C@H](OC(=O)CC(C)C)C(C)=C[C@H]1O[C@@H]1[C@H](O)[C@@H](O)[C@@]2(C)[C@]12CO2", "note": "[HT-2 toxin]", "degradation by the selected isolate (deepoxidation and/or deacylation)": "degraded"}, {"molecule": "CC1=C[C@H]2O[C@@H]3[C@H](O)[C@@H](O)[C@](C)([C@@]2(CO)C[C@@H]1OC(=O)CC(C)C)[C@]31CO1", "note": "[T-2 triol]", "degradation by the selected isolate (deepoxidation and/or deacylation)": "degraded"}, {"molecule": "CC(=O)O[C@@H]1[C@@H](O)[C@H]2O[C@@H]3C=C(C)C(=O)[C@@H](O)[C@]3(CO)[C@]1(C)[C@]21CO1", "note": "[fusarenon X]", "degradation by the selected isolate (deepoxidation and/or deacylation)": "degraded"}, {"molecule": "CC(=O)OC[C@]12C[C@H](O)C(C)=C[C@H]1O[C@@H]1[C@H](O)[C@@H](OC(C)=O)[C@@]2(C)[C@]12CO2", "note": "[neosolaniol]", "degradation by the selected isolate (deepoxidation and/or deacylation)": "degraded"}, {"molecule": "CC1=C[C@H]2O[C@@H]3[C@H](O)[C@@H](O)[C@](C)([C@@]2(CO)[C@H](O)C1=O)[C@]31CO1", "note": "[nivalenol]", "degradation by the selected isolate (deepoxidation and/or deacylation)": "degraded"}]}, {"test_system": "bacterial isolate 180507-1 (IDAC)", "format": "cell-based", "remark": "another data set of the same source", "values": [{"molecule": "Vancomysin", "Reaction (sensitivity of the isolate)": "Sensitive"}]}]}
